The values that follow come from patent publication US9242929B2, “Compounds as diacylglycerol acyltransferase inhibitors” (GlaxoSmithKline Intellectual Property (No.2) Limited, priority 2011, dated 2016).

The structures appear in SMILES notation.

This assay deals with T1, Human DGAT1 (Homo sapiens, UniProt O75907).
T1 construct: made in house; host or cells: Sf9 insect cells (baculovirus), microsomes
T1 sequence (O75907 1-488): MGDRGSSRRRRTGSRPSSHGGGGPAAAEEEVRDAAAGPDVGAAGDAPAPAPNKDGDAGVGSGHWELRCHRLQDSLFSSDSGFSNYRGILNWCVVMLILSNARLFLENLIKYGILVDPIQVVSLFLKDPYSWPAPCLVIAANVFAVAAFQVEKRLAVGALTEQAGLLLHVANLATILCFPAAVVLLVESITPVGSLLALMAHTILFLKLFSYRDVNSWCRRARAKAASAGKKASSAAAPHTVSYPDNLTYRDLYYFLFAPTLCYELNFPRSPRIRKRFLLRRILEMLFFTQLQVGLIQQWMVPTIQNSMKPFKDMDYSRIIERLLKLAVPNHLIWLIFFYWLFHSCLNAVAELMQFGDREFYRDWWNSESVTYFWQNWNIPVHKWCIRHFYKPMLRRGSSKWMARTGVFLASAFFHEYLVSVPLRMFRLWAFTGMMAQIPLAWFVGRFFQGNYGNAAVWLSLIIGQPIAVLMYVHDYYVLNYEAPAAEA
Briefly: human DGAT1 fluorescence (CPM) assay, inhibition of CoA product formation. It is filed as biochemical. The note with it: human DGAT1 fluorescene (CPM) assay; microsomes from Sf9 insect cells; read-out: hDGAT IC50. The procedure: Human DGAT1 was expressed in Sf9 insect cells using a baculovirus expression system. Microsomes were prepared and used as enzyme for in vitro inhibition testing in either of two formats measuring production of coenzyme A or tridecanoylglycerol product, respectively. All steps were performed at 21-23° C. All data for DGAT1 inhibition by test compounds were collected under conditions where product formation was linear with reaction time.
An equal volume (10 uL) of 3× enzyme in buffer was added and the components incubated for 30 minutes pre-reaction incubation to allow enzyme and test compounds to attain binding equilibrium. […] Some assays were performed with inclusion of didecanoylglycerol in the pre-reaction incubation of test compound and enzyme. DGAT reactions (30 uL) were initiated upon addition of 10 uL of 3× substrate solution. Final reaction conditions consisted of 20 mM HEPES pH 7.5, 2 mM MgCl2, 1 mM CHAPS, 50 uM didecanoylglycerol, 3 uM decanoyl-CoA, 1 ug/mL microsomal protein, and 1% DMSO. Following a 60 minute reaction incubation, reactions were stopped and CoA product derivatized with 30 uL of buffer containing 10 uM {4-[4-(4-amino-7,7-dimethyl-7H-pyrimido[4,5-b][1,4]oxazin-6-yl)phenyl]cyclohexyl}acetic acid and 50 uM 7-diethylamino-3-(4′-maleimidylphenyl)-4-methylcoumarin (CPM). […] IC50s were fitted using GraphPad Prism to a sigmoidal dose response.
`CC[C@@]1(CC(=O)O)CCc2cc(-c3ccc(NC(=O)Nc4cccc(C(F)(F)F)c4)cc3)ccc2[C@@H]1O` (relative stereo) [Example 173, rel-2-[(1R,2S)-2-ethyl-1-hydroxy-6-[4-({[3-(trifluoromethyl)phenyl]carbamoyl}amino)phenyl]-1,2,3,4-tetrahydronaphthalen-2-yl]acetic acid]: the IC50 was found to be 0.0108 µM.

On to `CC1(CC(=O)O)CCc2cc(-c3ccc(NC(=O)Nc4cccc(Cl)c4)cc3Cl)ccc2C1=O` (single isomer, unassigned) [Example 212, 2-(6-(2-chloro-4-(3-(3-chlorophenyl)ureido)phenyl)-2-methyl-1-oxo-1,2,3,4-tetrahydronaphthalen-2-yl)acetic acid], for which the IC50 came to 0.0328 µM.

Turning to `CCC1(CC(=O)O)CCc2cc(-c3ccc(NC(=O)Nc4cccc(Cl)c4)cc3Cl)ccc2C1=O` (single isomer, unassigned) [Example 213, 2-(6-(2-Chloro-4-(3-(3-chlorophenyl)ureido)phenyl)-2-ethyl-1-oxo-1,2,3,4-tetrahydronaphthalen-2-yl)acetic acid], the IC50 was found to be 0.0059 µM.

Turning to `O=C(O)CC1(CC(F)(F)F)CCc2cc(-c3ccc(NC(=O)Nc4cccc(Cl)c4)cc3)ccc2C1=O` (single isomer, unassigned) [Example 214, 2-(6-(4-(3-(3-Chlorophenyl)ureido)phenyl)-1-oxo-2-(2,2,2-trifluoroethyl)-1,2,3,4-tetrahydronaphthalen-2-yl)acetic acid], the IC50 came out at 0.0006 µM.

For the molecule `O=C(O)CC1(CC(F)(F)F)CCc2cc(-c3cnc(NC(=O)NC4CCCCC4)cn3)ccc2C1=O` (single isomer, unassigned) [Example 216, 2-(6-(5-(3-cyclohexylureido)pyrazin-2-yl)-1-oxo-2-(2,2,2-trifluoroethyl)-1,2,3,4-tetrahydronaphthalen-2-yl)acetic acid], the IC50 came to 0.0027 µM.

For `COC1(CC(=O)O)CCc2cc(-c3ccc(NC(=O)Nc4cccc(C(F)(F)F)c4)cc3)ccc2C1=O` (single isomer, unassigned) [Example 228], the IC50 was found to be 0.0069 µM.

As for `O=C(O)CN1CCc2cc(-c3ccc(NC(=O)Nc4cccc(C(F)(F)F)c4)cc3)ccc2C1=O` [Example 1, 2-{1-oxo-6-[4-({[3-(trifluoromethyl)phenyl]carbamoyl}amino)phenyl]-1,2,3,4-tetrahydroisoquinolin-2-yl}acetic acid], the IC50 came out at 1.88 µM.

On to `O=C(O)CC1CCc2cc(-c3ccc(NC(=O)Nc4ccc(F)c(C(F)(F)F)c4)cc3)ccc2C1` (stereo not drawn) [Example 20], for which the IC50 came out at 0.586 µM.

On to `O=C(O)CC1(O)CCc2cc(-c3ccc(NC(=O)Nc4cccc(C(F)(F)F)c4)cc3)ccc2C1` (stereo not drawn) [Example 40, 2-{2-hydroxy-6-[4-({[3-(trifluoromethyl)phenyl]carbamoyl}amino)phenyl]-1,2,3,4-tetrahydronaphthalen-2-yl}acetic acid], for which the IC50 is 0.357 µM.

For the molecule `CCC1(CC(=O)O)Cc2cc(-c3ccc(NC(=O)Nc4cccc(C(F)(F)F)c4)cc3)ccc2C1=O` (stereo not drawn) [Example 42, 2-{2-ethyl-1-oxo-5-[4-({[3-(trifluoromethyl)phenyl]carbamoyl}amino)phenyl]-2,3-dihydro-1H-inden-2-yl}acetic acid], the IC50 stood at 0.06 µM.

Consider `O=C(O)CC1CCc2cc(-c3ccc(NC(=O)Nc4cccc(C(F)(F)F)c4)cc3)ccc2C1=O` (stereo not drawn) [Example 47, 2-{1-oxo-6-[4-({[3-(trifluoromethyl)phenyl]carbamoyl}amino)phenyl]-1,2,3,4-tetrahydronaphthalen-2-yl}acetic acid], for which the IC50 was 0.181 µM.

As to `O=C(O)CC1CCc2cc(-c3ccc(NC(=O)Nc4cccc(C(F)(F)F)c4)cc3)ccc2C1O` (stereo not drawn) [Example 68, 2-{1-hydroxy-6-[4-({[3-(trifluoromethyl)phenyl]carbamoyl}amino)phenyl]-1,2,3,4-tetrahydronaphthalen-2-yl}acetic acid], the IC50 is 0.503 µM.

As to `O=C(O)CCC1CCc2cc(-c3ccc(NC(=O)Nc4cccc(C(F)(F)F)c4)cc3)ccc2C1=O` (stereo not drawn) [Example 69, 3-{1-oxo-6-[4-({[3-(trifluoromethyl)phenyl]carbamoyl}amino)phenyl]-1,2,3,4-tetrahydronaphthalen-2-yl}propanoic acid], the IC50 is 0.114 µM.

On to `CC(C)(C(=O)O)C1CCc2cc(-c3ccc(NC(=O)Nc4cccc(C(F)(F)F)c4)cc3)ccc2C1=O` (stereo not drawn) [Example 76, 2-methyl-2-{1-oxo-6-[4-({[3-(trifluoromethyl)phenyl]carbamoyl}amino)phenyl]-1,2,3,4-tetrahydronaphthalen-2-yl}propanoic acid], for which the IC50 was 0.112 µM.

For the molecule `CC1(CC(=O)O)CCc2cc(-c3ccc(NC(=O)Nc4cccc(Cl)c4)c(F)c3)ccc2C1=O` (stereo not drawn) [Example 90], the IC50 came to 0.012 µM.

`CC1(CC(=O)O)CCc2cc(-c3ccc(NC(=O)Nc4cccc(C(F)(F)F)c4)cn3)ccc2C1=O` (stereo not drawn) [Example 109]: the IC50 was found to be 0.0142 µM.

Turning to `CCC1(CC(=O)O)CCc2cc(-c3ccc(NC(=O)Nc4cccc(Cl)c4)cc3Cl)ccc2C1=O` (stereo not drawn) [Example 139], the IC50 worked out at 0.0108 µM.

`CCC1(CC(=O)O)CCc2cc(-c3ccc(NC(=O)Nc4ccccc4)cc3Cl)ccc2C1=O` (stereo not drawn) [Example 140]: the IC50 was 0.0318 µM.

In the case of `CCC1(CC(=O)O)CCc2cc(-c3ccc(NC(=O)Nc4ccccc4)c(F)c3)ccc2C1=O` (stereo not drawn) [Example 141], the half-maximal inhibitory concentration (IC50) turned out to be 0.0094 µM.

Consider `CCC1(CC(=O)O)CCc2cc(-c3ccc(NC(=O)Nc4cccc(C(F)(F)F)c4)c(F)c3)ccc2C1=O` (stereo not drawn) [Example 143], for which the IC50 turned out to be 0.0112 µM.

As for `CCC1(CC(=O)O)CCc2cc(-c3ccc(NC(=O)Nc4cccc(Cl)c4)c(F)c3)ccc2C1=O` (stereo not drawn) [Example 144], the IC50 turned out to be 0.0058 µM.

Consider `CCC1(CC(=O)O)CCc2cc(-c3cnc(NC(=O)Nc4ccccc4)cn3)ccc2C1=O` (stereo not drawn) [Example 154], for which the IC50 came out at 0.0478 µM.

With `CC[C@@]1(CC(=O)O)CCc2cc(-c3ccc(NC(=O)Nc4cccc(Cl)c4)cn3)ccc2C1=O` [Example 164], the IC50 came to 0.0045 µM.

For the molecule `O=C(O)CC1(F)CCc2cc(-c3ccc(NC(=O)Nc4cccc(C(F)(F)F)c4)cc3)ccc2C1=O` (stereo not drawn) [Example 182, 2-{2-fluoro-1-oxo-6-[4-({[3-(trifluoromethyl)phenyl]carbamoyl}amino)phenyl]-1,2,3,4-tetrahydronaphthalen-2-yl}acetic acid], the IC50 came to 0.048 µM.

For the molecule `O=C(O)CC1(O)CCc2cc(-c3ccc(NC(=O)Nc4cccc(C(F)(F)F)c4)cc3)ccc2C1=O` (stereo not drawn) [Example 185, 2-{2-hydroxy-1-oxo-6-[4-({[3-(trifluoromethyl)phenyl]carbamoyl}amino)phenyl]-1,2,3,4-tetrahydronaphthalen-2-yl}acetic acid], the IC50 came to 0.032 µM.

Consider `COC1(CC(=O)O)CCc2cc(-c3ccc(NC(=O)Nc4ccccc4)cc3)ccc2C1=O` (stereo not drawn) [Example 190, 2-(2-methoxy-1-oxo-6-{4-[(phenylcarbamoyl)amino]phenyl}-1,2,3,4-tetrahydronaphthalen-2-yl)acetic acid], for which the IC50 amounted to 0.0676 µM.

Consider `COC1(CC(=O)O)CCc2cc(-c3ccc(NC(=O)Nc4cccc(Cl)c4)cc3)ccc2C1=O` (stereo not drawn) [Example 192], for which the IC50 was 0.0106 µM.

Consider `COCC1(CC(=O)O)CCc2cc(-c3ccc(NC(=O)Nc4cccc(C(F)(F)F)c4)cc3)ccc2C1=O` (stereo not drawn) [Example 197, 2-[2-(methoxymethyl)-1-oxo-6-[4-({[3-(trifluoromethyl)phenyl]carbamoyl}amino)phenyl]-1,2,3,4-tetrahydronaphthalen-2-yl]acetic acid], for which the IC50 was 0.0023 µM.

On to `O=C(O)CC1(CO)CCc2cc(-c3ccc(NC(=O)Nc4cccc(Cl)c4)c(F)c3)ccc2C1=O` (stereo not drawn) [Example 198, 2-(6-(4-(3-(3-Chlorophenyl)ureido)-3-fluorophenyl)-2-(hydroxymethyl)-1-oxo-1,2,3,4-tetrahydronaphthalen-2-yl)acetic acid], for which the IC50 is 0.055 µM.

For `O=C(O)CC1(CC(F)(F)F)CCc2cc(-c3ccc(NC(=O)Nc4ccccc4)cc3)ccc2C1O` (stereo not drawn) [Example 202], the IC50 came out at 0.0065 µM.

Turning to `O=C(O)CC1(CC(F)(F)F)CCc2cc(-c3ccc(NC(=O)Nc4cccc(Cl)c4)cc3)ccc2C1=O` (stereo not drawn) [Example 205], the IC50 is 0.0035 µM.

For `O=C(O)CC1(CC(F)(F)F)CCc2cc(-c3cnc(NC(=O)Nc4ccc(F)c(F)c4)cn3)ccc2C1=O` (stereo not drawn) [Example 215, 2-(6-(5-(3-(3,4-Difluorophenyl)ureido)pyrazin-2-yl)-1-oxo-2-(2,2,2-trifluoroethyl)-1,2,3,4-tetrahydronaphthalen-2-yl)acetic acid], the IC50 turned out to be 0.0018 µM.

As for `CCC(CC)NC(=O)Nc1cnc(-c2ccc3c(c2)CCC(CC(=O)O)(CC(F)(F)F)C3=O)cn1` (stereo not drawn) [Example 219], the IC50 came out at 5.96 µM.
